Structures are written as SMILES. The source made the active and inactive calls. No cut-off for these calls is given here.

The test system of test [1] is ME-180. The experiment in a line: Cell cycle arrest in human ME180 cells assessed as accumulation at S phase at 1 uM after 48 hrs by FACS analysis (reference value: 19.3%). The class given is functional. For orientation: A flow cytometer gives signals particle by particle.
The test system of test [2] is ME-180. Description: Induction of apoptosis in human ME180 cells assessed as early apoptotic cells at 1 uM for 24 hrs by annexin V/PI staining based flow cytometry (reference value: 0.2%). The class given is functional.
The subject of test [3] is ME-180. Description: Cell cycle arrest in human ME180 cells assessed as accumulation at G2/M phase at 0.5 uM after 48 hrs by FACS analysis (reference value: 13.2%). The test is classed as functional.
Test [4] relates to ME-180. Description: Cell cycle arrest in human ME180 cells assessed as accumulation at G1 phase at 0.5 uM after 48 hrs by FACS analysis (reference value: 59.9%). The class given is functional.
The subject of the next test is DU-145. Description: Anticancer activity against human DU145 cells by MTT assay. The class given is functional, cell-based.
In test [5] the test system is ME-180. The experiment in a line: Cell cycle arrest in human ME180 cells assessed as accumulation at SubG1 phase at 1 uM after 48 hrs by FACS analysis (reference value: 7.0%). The test is classed as functional.
Test [6] deals with ME-180. Description: Induction of apoptosis in human ME180 cells assessed as DNA fragmentation at 1 uM after 48 hrs. The test is classed as functional, cell-based.
Test [7] has as its system ME-180. Description: Induction of apoptosis in human ME180 cells assessed as presence of apoptotic bodies at 1 uM for 24 hrs by Hoechst staining analysis. The test is classed as functional, cell-based.
The subject of test [8] is ME-180. Description: Cell cycle arrest in human ME180 cells assessed as accumulation at G1 phase at 1 uM after 48 hrs by FACS analysis (reference value: 59.9%). The test is classed as functional.
Test [9] concerns ME-180. The experiment in a line: Induction of apoptosis in human ME180 cells assessed as nuclear fragmentation at 1 uM for 24 hrs by Hoechst staining analysis. The class given is functional, cell-based.
Test [10] concerns ME-180. The experiment in a line: Induction of apoptosis in human ME180 cells assessed as late apoptotic cells at 1 uM for 24 hrs by annexin V/PI staining based flow cytometry (reference value: 5%). The class given is functional.
For test [11], the system named is ME-180. Description: Cell cycle arrest in human ME180 cells assessed as accumulation at S phase at 0.5 uM after 48 hrs by FACS analysis (reference value: 19.3%). The class given is functional.
Test [12] relates to ME-180. Description: Induction of apoptosis in human ME180 cells assessed as viable cells at 1 uM for 24 hrs by annexin V/PI staining based flow cytometry (reference value: 83.1%). The test is classed as functional. Conditions: ME-180, 24 h, read-out: Activity.
Test [13] concerns ME-180. Description: Induction of apoptosis in human ME180 cells assessed as cytoplasmic condensation at 1 uM for 24 hrs by Hoechst staining analysis. The test is classed as functional, cell-based.
Test [14] concerns ME-180. The experiment in a line: Cell cycle arrest in human ME180 cells assessed as accumulation at G2/M phase at 1 uM after 48 hrs by FACS analysis (reference value: 13.2%). The class given is functional.
A further test deals with A549. The experiment in a line: Anticancer activity against human A549 cells by MTT assay. The test is classed as functional, cell-based.
Test [15] has as its system ME-180. Description: Cell cycle arrest in human ME180 cells assessed as accumulation at SubG1 phase at 0.5 uM after 48 hrs by FACS analysis (reference value: 7.0%). The class given is functional.
In test [16] the test system is ME-180. Description: Induction to apoptosis in human ME180 cells assessed as increase in caspase-3 activity at 1 uM for 48 hrs relative to control. The class given is functional.
In another test the test system is A-375. The experiment in a line: Anticancer activity against human A375 cells by MTT assay. The class given is functional, cell-based.
The subject of test [17] is ME-180. Description: Anticancer activity against human ME180 cells by MTT assay. The test is classed as functional, cell-based.
In test [18] the test system is ME-180. Description: Induction of apoptosis in human ME180 cells assessed as mitochondrial membrane depolarization at 1 uM for 24 hrs by using JC-1 dye. The class given is functional, cell-based.
Test [19] relates to ME-180. Description: Induction of apoptosis in human ME180 cells assessed as necrotic cells at 1 uM for 24 hrs by annexin V/PI staining based flow cytometry (reference value: 11.7%). The class given is functional.
Test [20] has as its system ME-180. The experiment in a line: Cell cycle arrest in human ME180 cells assessed as accumulation at G2/M phase at <1 uM. The test is classed as functional, cell-based.

For orientation: IC50 means the point on the concentration scale where inhibition reaches its midpoint. Read a low IC50 as higher potency. For `Cc1ccc(-c2nc3sc(C)nn3c2-c2nc3cc(Cl)c(F)cc3[nH]2)cc1`, the Activity with ME-180 [1] is listed as 10.1%; with ME-180 [2], 0.8%; in the test on ME-180 [3], 6.7%; in the test with ME-180 [4], 66.6%; in the test on ME-180 [5], 11.6%; in the test on ME-180 [8], 75.7%. Also, the Activity in the test with ME-180 [10] stood at 16.5%; in the test on ME-180 [11], 12.3%; in the test with ME-180 [14], 2.3%; with ME-180 [15] it was 14.1%; in the test with ME-180 [19] it was 9.6%. The IC50 is 11.8 µM with DU-145, 10.3 µM in the test with A549, 1040 nM in the test on A-375 and 700 nM with ME-180 [17]. Moreover, the outcome with ME-180 [6], in the test on ME-180 [7], in the test with ME-180 [9], with ME-180 [13] and in the test on ME-180 [18] was Active. The viability at 1 µM with ME-180 [12] amounted to 73.1%. In the test on ME-180 [16], the “fold change (FC)” value was determined as 3.

As for `Cc1nn2c(-c3nc4cc(Cl)c(Cl)cc4[nH]3)c(-c3ccccc3)nc2s1`, the Activity in the test with ME-180 [1] stood at 9.3%; in the test with ME-180 [2], 1%; with ME-180 [3], 10.4%; with ME-180 [4], 68.1%; in the test with ME-180 [5] it was 16.3%; in the test on ME-180 [8], 72.4%. Further, the Activity in the test on ME-180 [10] worked out at 22.6%; in the test on ME-180 [11] it was 15.7%; with ME-180 [14], 1.6%; in the test with ME-180 [15], 5.4%; in the test with ME-180 [19] it was 17.7%. Moreover, the IC50 in the test on DU-145 was determined as 19.1 µM; in the test on A549, 13.6 µM; with A-375 it was 2800 nM; in the test on ME-180 [17], 500 nM. Moreover, the outcome in the test with ME-180 [6], in the test on ME-180 [7], in the test on ME-180 [9], with ME-180 [13] and in the test with ME-180 [18] was Active. For the same compound, the viability at 1 µM in the test on ME-180 [12] was found to be 58.7%. The “fold change (FC)” value with ME-180 [16] was 3.

In the case of `COc1cccc2c1C(=O)c1c(O)c3c(c(O)c1C2=O)C[C@@](O)(C(=O)CO)C[C@@H]3O[C@H]1C[C@H](N)[C@H](O)[C@H](C)O1` [DOXORUBICIN], the Activity worked out at 16.1% in the test with ME-180 [1]; 0.7% with ME-180 [2]; 7.7% in the test on ME-180 [5]; 64.8% with ME-180 [8]; 15.1% in the test with ME-180 [10]; 10.9% in the test on ME-180 [14]. The Activity in the test on ME-180 [19] came out at 16.8%. Besides, the 50% inhibitory concentration (IC50) in the test on DU-145 was 2.4 µM; with A549, 1.1 µM; in the test with A-375, 1200 nM; in the test on ME-180 [17], 500 nM. In addition, the outcome in the test with ME-180 [6] and in the test with ME-180 [20] was Active. The viability at 1 µM with ME-180 [12] was 67.5%. Further, the “fold change (FC)” value in the test on ME-180 [16] was determined as 3.

The values above are taken from ChEMBL document CHEMBL3621145, “Synthesis of imidazothiadiazolebenzimidazole conjugates as mitochondrial apoptosis inducers” (Medchemcomm, 2014).
